According to patent US7087642B2 (priority 1999, dated 2006):
Like-named read-outs stand apart in the source and are kept apart here.

Legend:
human PBMC T cells = test: cells; assay type: cell-based; conditions: read-out: T-cells (IC50)
human PBMC B cells = test: cells; assay type: cell-based; conditions: read-out: B-cells (IC50)
IMPDH human type II = IMPDH human type II (Homo sapiens, UniProt P12268); test: biochemical

With `COc1cc(NC(=O)Nc2cccc(CNC(=O)OC[C@@H](N)CC#N)c2)ccc1-c1cnco1` [Compound 5] the IC50 (human PBMC T cells; Homo sapiens, 72 h) was > 1000 nM, the IC50 (human PBMC B cells; Homo sapiens, 72 h) was > 1000 nM and the Ki (IMPDH human type II; read-out: Ki) was < 10 nM.

For `COc1cc(NC(=O)Nc2cccc(CNC(=O)OC[C@@H](CC#N)NC(=O)OC(C)(C)C)c2)ccc1-c1cnco1` [Compound 12], the IC50 (human PBMC T cells; Homo sapiens, 72 h) was 100 to 1000 nM, the IC50 (human PBMC B cells; Homo sapiens, 72 h) was 100 to 1000 nM and the Ki (IMPDH human type II; read-out: Ki) was < 10 nM.

For `COc1cc(NC(=O)Nc2cccc(CNC(=O)OC(CCN(CC(C)C)C(C)C)c3ccccc3)c2)ccc1-c1cnco1` (stereo not drawn) [Compound 130], the IC50 (human PBMC T cells; Homo sapiens, 72 h) was 100 to 1000 nM, the IC50 (human PBMC B cells; Homo sapiens, 72 h) was > 1000 nM and the Ki (IMPDH human type II; read-out: Ki) was > 50 nM.

For `COc1cc(NC(=O)Nc2cccc(CNC(=O)OCC(C)(C)CCC#N)c2)ccc1-c1cnco1` [Compound 7], the IC50 (human PBMC T cells; Homo sapiens, 72 h) was 100 to 1000 nM, the IC50 (human PBMC B cells; Homo sapiens, 72 h) was 100 to 1000 nM and the Ki (IMPDH human type II; read-out: Ki) was < 10 nM.

In the case of `COc1cc(NC(=O)Nc2cccc([C@@H](C)NC(=O)OCCC#N)c2)ccc1C#N` [Compound 173], the IC50 (human PBMC T cells; Homo sapiens, 72 h) is reported as > 1000 nM, the IC50 (human PBMC B cells; Homo sapiens, 72 h) is reported as 100 to 1000 nM and the Ki (IMPDH human type II; read-out: Ki) is reported as > 50 nM.

For `COc1cc(NC(=O)Nc2cccc(CNC(=O)OC[C@H](CC#N)NC(=O)CC(C)(C)C)c2)ccc1-c1cnco1` [Compound 10], the IC50 (human PBMC T cells; Homo sapiens, 72 h) was 100 to 1000 nM, the IC50 (human PBMC B cells; Homo sapiens, 72 h) was > 1000 nM and the Ki (IMPDH human type II; read-out: Ki) was < 10 nM.

`COc1cc(NC(=O)Nc2cccc(CNC(=O)OC3COCC3OCC(=O)OC(C)(C)C)c2)ccc1-c1cnco1` (stereo not drawn) [Compound 70] was tested, and the IC50 (human PBMC T cells) was > 1000 nM, the IC50 (human PBMC B cells) was > 1000 nM and the Ki (IMPDH human type II; read-out: Ki) was < 10 nM.

`COc1cc(NC(=O)Nc2cccc(CNC(=O)O[C@H](C)CCC#N)c2)ccc1-c1cnco1` [Compound 47] was tested, and the IC50 (human PBMC T cells; Homo sapiens, 72 h) was 100 to 1000 nM, the IC50 (human PBMC B cells; Homo sapiens, 72 h) was 100 to 1000 nM and the Ki (IMPDH human type II; read-out: Ki) was < 10 nM.

`C[C@H](NC(=O)O[C@H]1CCOC1)c1cccc(NC(=O)Nc2ccc(C#N)c(Cl)c2)c1` [Compound 187] was tested, and the IC50 (human PBMC T cells; Homo sapiens, 72 h) was 100 to 1000 nM, the IC50 (human PBMC B cells; Homo sapiens, 72 h) was < 100 nM and the Ki (IMPDH human type II) was 10 to 50 nM.

For `COc1cc(NC(=O)Nc2cccc(CNC(=O)OC(CCN(CC(C)C)CC(C)C)c3ccccc3)c2)ccc1-c1cnco1` (stereo not drawn) [Compound 126], the IC50 (human PBMC T cells; Homo sapiens, 72 h) was > 1000 nM, the IC50 (human PBMC B cells; Homo sapiens, 72 h) was > 1000 nM and the Ki (IMPDH human type II; read-out: Ki) was > 50 nM.

In the case of `COc1cc(NC(=O)Nc2cccc(CNC(=O)O[C@H](C)CC#N)c2)ccc1-c1cnco1` [Compound 29], the IC50 (human PBMC T cells) is reported as < 100 nM, the IC50 (human PBMC B cells) is reported as < 100 nM and the Ki (IMPDH human type II; read-out: Ki) is reported as < 10 nM.

In the case of `CCCN(CCC(OC(=O)NCc1cccc(NC(=O)Nc2ccc(-c3cnco3)c(OC)c2)c1)c1ccccc1)CC(C)C` (stereo not drawn) [Compound 120], the IC50 (human PBMC T cells; Homo sapiens, 72 h) is reported as > 1000 nM, the IC50 (human PBMC B cells; Homo sapiens, 72 h) is reported as > 1000 nM and the Ki (IMPDH human type II; read-out: Ki) is reported as > 50 nM.

`COc1cc(NC(=O)Nc2cccc(CNC(=O)O[C@H](CC#N)CN3CCOCC3)c2)ccc1-c1cnco1` [Compound 18] was tested, and the IC50 (human PBMC T cells) was > 1000 nM, the IC50 (human PBMC B cells) was > 1000 nM and the Ki (IMPDH human type II; read-out: Ki) was < 10 nM.

In the case of `CCC(CCC#N)COC(=O)NCc1cccc(NC(=O)Nc2ccc(-c3cnco3)c(OC)c2)c1` (stereo not drawn) [Compound 8], the IC50 (human PBMC T cells; Homo sapiens, 72 h) is reported as 100 to 1000 nM, the IC50 (human PBMC B cells; Homo sapiens, 72 h) is reported as 100 to 1000 nM and the Ki (IMPDH human type II; read-out: Ki) is reported as < 10 nM.

With `CC[C@H](CCO)OC(=O)NCc1cccc(NC(=O)Nc2ccc(-c3cnco3)c(OC)c2)c1` [Compound 68] the IC50 (human PBMC T cells) was 100 to 1000 nM, the IC50 (human PBMC B cells) was 100 to 1000 nM and the Ki (IMPDH human type II; read-out: Ki) was < 10 nM.

For `CCN(CC)C[C@H](OC(=O)NCc1cccc(NC(=O)Nc2ccc(-c3cnco3)c(OC)c2)c1)c1ccccc1` [Compound 66], the IC50 (human PBMC T cells; Homo sapiens, 72 h) was > 1000 nM, the IC50 (human PBMC B cells; Homo sapiens, 72 h) was > 1000 nM and the Ki (IMPDH human type II; read-out: Ki) was < 10 nM.

With `CC[C@H](CO)OC(=O)NCc1cccc(NC(=O)Nc2ccc(-c3cnco3)c(OC)c2)c1` [Compound 60] the IC50 (human PBMC T cells; Homo sapiens, 72 h) was 100 to 1000 nM, the IC50 (human PBMC B cells; Homo sapiens, 72 h) was 100 to 1000 nM and the Ki (IMPDH human type II; read-out: Ki) was < 10 nM.
